Test system: Rattus norvegicus
Assay: Maximal blood concentration after oral administration of a 30 umol/kg dose of compound
Type: ADME, organism-based
Design: dose 30 umol/kg, route oral
Settings: in vivo

| Cmax [nmol/g] | SMILES |
| --- | --- |
| 5.5 | CN1C(C(=O)Nc2cccc[n+]2C)=C(O)c2ccccc2S1(=O)=O.[I-] |
| 47.8 | CN1C(C(=O)Nc2ccccn2)=C(O)c2ccccc2S1(=O)=O [PIROXICAM] |
